Measurements taken from the supplement of paper PMC4862054.

Columns and labels:
[1] = test system: BT-549; settings: 72 h
How it was run: (§1)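 Viability of breast cancer cell lines was measured with CellTiter-Blue after 72 h of incubation on compound-loaded 384-well plates. Cells were seeded in 20 µl onto compound dissolved in 5 µl medium, and 2.5 µl reagent was added for 2 h at 37 °C before reading at 560/590 nm. EC50 was fitted from percent-inhibition dose-response data censored at the highest concentration, normalised per plate to vehicle and a positive kill control, with zero drug sensitivity score rows dropped.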

[2] = test system: CAL-120; settings: 72 h
How it was run: as §1

[3] = test system: SK-BR-3; settings: 72 h
How it was run: as §1

[4] = test system: HCC1937; settings: 72 h
How it was run: as §1

[5] = test system: MDA-MB-436; settings: 72 h
How it was run: as §1

[6] = test system: HCC1143; test: normalised viability (% of control), CellTiter-Blue; higher = more viable cells (about 100 = DMSO control); settings: incubation time: 72 h
How it was run: (§2)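 Seeded at 20 µl suspension per well onto compound-loaded 384-well plates, breast cancer cell lines were incubated 72 h. CellTiter-Blue fluorescence at 560/590 nm was then read, with each plate normalised to vehicle (100) and a positive kill control (0). Normalised viability is reported at a single listed concentration of the series.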

[7] = test system: BT-549; test: as above; settings: incubation time: 72 h
How it was run: as §2

[8] = test system: HCC1599; test: as above; settings: incubation time: 72 h
How it was run: as §2

[9] = test system: CAL-120; test: as above; settings: incubation time: 72 h
How it was run: as §2

[10] = test system: CAL-51; test: as above; settings: incubation time: 72 h
How it was run: as §2

[11] = test system: MDA-MB-468; test: as above; settings: incubation time: 72 h
How it was run: as §2

[12] = test system: MDA-MB-453; test: as above; settings: incubation time: 72 h
How it was run: as §2

[13] = test system: Hs578T; test: as above; settings: incubation time: 72 h
How it was run: as §2

[14] = test system: SK-BR-3; test: as above; settings: incubation time: 72 h
How it was run: as §2

[15] = test system: BT-474; test: as above; settings: incubation time: 72 h
How it was run: as §2

[16] = test system: DU-4475; test: as above; settings: incubation time: 72 h
How it was run: as §2

[17] = test system: MDA-MB-231; test: as above; settings: incubation time: 72 h
How it was run: as §2

[18] = test system: HDQ-P1; test: as above; settings: incubation time: 72 h
How it was run: as §2

[19] = test system: HCC1937; test: as above; settings: incubation time: 72 h
How it was run: as §2

[20] = test system: CAL-85-1; test: as above; settings: incubation time: 72 h
How it was run: as §2

[21] = test system: CAL-148; test: as above; settings: incubation time: 72 h
How it was run: as §2

[22] = test system: MDA-MB-436; test: as above; settings: incubation time: 72 h
How it was run: as §2

[23] = test system: MFM-223; test: as above; settings: incubation time: 72 h
How it was run: as §2

Nc1ccn([C@@H]2O[C@H](CO)[C@@H](O)[C@@H]2O)c(=O)n1 [Cytarabine]
Settings	EC50, CellTiter-Blue viability [nM]
[1]	12.8
[2]	246
[3]	487
[4]	117
[5]	156

normalised viability [%]
Settings	3 nM	10 nM	30 nM	100 nM	1000 nM	10000 nM
[6]	–	80.5	–	–	71.4	63
[7]	–	87.2	–	–	65.7	62.9
[8]	–	109	–	–	78.7	77.4
[9]	–	95.6	–	–	66.4	56.9
[10]	94.1	–	91.9	79.8	–	–
[11]	–	101	–	–	68.4	57.2
[12]	101	–	111	94.9	–	–
[13]	–	90.4	–	–	67.8	62.3
[14]	–	97.3	–	–	64.7	47.2
[15]	–	103	–	–	95.7	93.4
[16]	121	–	87.8	93.9	–	–
[17]	–	100	–	–	67	61.7
[18]	80.6	–	94.8	42.5	–	–
[19]	–	124	–	–	41.6	42.6
[20]	106	–	97.4	104	–	–
[21]	95.9	–	68.9	47.9	–	–
[22]	–	98.2	–	–	74.3	74.1
[23]	–	107	–	–	95.6	97.3

Cc1c2oc3c(C)ccc(C(=O)N[C@@H]4C(=O)N[C@H](C(C)C)C(=O)N5CCC[C@H]5C(=O)N(C)CC(=O)N(C)[C@@H](C(C)C)C(=O)O[C@@H]4C)c3nc-2c(C(=O)N[C@@H]2C(=O)N[C@H](C(C)C)C(=O)N3CCC[C@H]3C(=O)N(C)CC(=O)N(C)[C@@H](C(C)C)C(=O)O[C@@H]2C)c(N)c1=O [Dactinomycin]
Settings	EC50, CellTiter-Blue viability [nM]
[1]	1.27
[2]	1.09
[3]	2.91
[4]	2.17
[5]	6.66

normalised viability [%]
Settings	0.3 nM	1 nM	3 nM	10 nM	100 nM	1000 nM
[6]	–	50.3	–	–	17.6	16
[7]	–	56.6	–	–	4.94	4.47
[8]	–	87.7	–	–	18.1	12.8
[9]	–	51	–	–	11.9	9.97
[10]	99.7	–	50	17.8	–	–
[11]	–	60.3	–	–	3.39	4.33
[12]	85.1	–	42.9	40.5	–	–
[13]	–	53.8	–	–	3.41	1.67
[14]	–	76	–	–	3.88	4.85
[15]	–	73.3	–	–	25.2	24.1
[16]	89.3	–	2.85	0.2	–	–
[17]	–	53.3	–	–	7.55	5.39
[18]	85.1	–	45.2	35.9	–	–
[19]	–	65.8	–	–	21.8	18.4
[20]	79.1	–	43.6	40.8	–	–
[21]	71.8	–	32.4	4.61	–	–
[22]	–	48.8	–	–	13.1	9.7
[23]	–	86.2	–	–	8.99	10.4
